Source: ChEMBL document CHEMBL6109056, “Disrupted target binding with acryloyl group as potential Bcr-Abl/C-Src dual kinase inhibitor optimization strategies with maintained antitumor activity” (Bioorg Med Chem Lett, 2025)

Experiments:
Homo sapiens = organism: Homo sapiens; assay: Inhibition of C-Src (unknown origin) at 10 uM in presence of ATP relative to control
[1] = target: Bcr/Abl fusion protein (Homo sapiens) (UniProt P00519+P11274); assay: Inhibition of wild-type Bcr-Abl (unknown origin) at 10 uM in presence of ATP relative to control; format: protein assay
Bcr/Abl fusion protein (Homo sapiens), sequence (P00519 whole entry, looked up, the tested form may be a part): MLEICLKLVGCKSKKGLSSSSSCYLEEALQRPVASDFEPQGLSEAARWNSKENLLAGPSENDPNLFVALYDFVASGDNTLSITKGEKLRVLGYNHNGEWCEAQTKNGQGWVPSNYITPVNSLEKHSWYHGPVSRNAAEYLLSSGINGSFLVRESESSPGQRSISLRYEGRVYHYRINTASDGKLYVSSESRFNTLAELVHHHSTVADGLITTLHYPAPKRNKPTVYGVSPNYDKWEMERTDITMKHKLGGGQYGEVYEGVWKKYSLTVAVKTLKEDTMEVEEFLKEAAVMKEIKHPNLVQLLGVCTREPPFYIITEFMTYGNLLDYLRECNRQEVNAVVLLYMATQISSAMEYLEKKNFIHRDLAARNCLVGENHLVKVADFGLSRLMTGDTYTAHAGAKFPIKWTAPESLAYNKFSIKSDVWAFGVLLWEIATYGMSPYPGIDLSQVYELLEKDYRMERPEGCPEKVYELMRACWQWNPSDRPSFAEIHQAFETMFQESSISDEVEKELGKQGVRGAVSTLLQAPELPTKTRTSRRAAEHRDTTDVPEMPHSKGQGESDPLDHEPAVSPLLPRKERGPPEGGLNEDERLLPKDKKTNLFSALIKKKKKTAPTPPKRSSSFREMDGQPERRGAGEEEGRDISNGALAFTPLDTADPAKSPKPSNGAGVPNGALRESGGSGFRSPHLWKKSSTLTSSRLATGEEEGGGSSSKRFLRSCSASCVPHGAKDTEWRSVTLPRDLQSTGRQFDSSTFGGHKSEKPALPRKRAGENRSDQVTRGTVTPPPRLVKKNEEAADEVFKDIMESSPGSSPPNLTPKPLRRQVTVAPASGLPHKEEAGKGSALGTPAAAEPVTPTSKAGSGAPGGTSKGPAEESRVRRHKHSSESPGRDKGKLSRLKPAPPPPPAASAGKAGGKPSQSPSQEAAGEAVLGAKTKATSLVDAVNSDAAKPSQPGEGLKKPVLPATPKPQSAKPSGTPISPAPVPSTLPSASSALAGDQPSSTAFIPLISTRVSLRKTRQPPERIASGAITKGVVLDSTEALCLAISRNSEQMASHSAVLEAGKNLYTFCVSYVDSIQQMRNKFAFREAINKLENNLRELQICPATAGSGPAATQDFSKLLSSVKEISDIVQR
Bcr/Abl fusion protein (Homo sapiens), sequence (P11274 whole entry, looked up, the tested form may be a part): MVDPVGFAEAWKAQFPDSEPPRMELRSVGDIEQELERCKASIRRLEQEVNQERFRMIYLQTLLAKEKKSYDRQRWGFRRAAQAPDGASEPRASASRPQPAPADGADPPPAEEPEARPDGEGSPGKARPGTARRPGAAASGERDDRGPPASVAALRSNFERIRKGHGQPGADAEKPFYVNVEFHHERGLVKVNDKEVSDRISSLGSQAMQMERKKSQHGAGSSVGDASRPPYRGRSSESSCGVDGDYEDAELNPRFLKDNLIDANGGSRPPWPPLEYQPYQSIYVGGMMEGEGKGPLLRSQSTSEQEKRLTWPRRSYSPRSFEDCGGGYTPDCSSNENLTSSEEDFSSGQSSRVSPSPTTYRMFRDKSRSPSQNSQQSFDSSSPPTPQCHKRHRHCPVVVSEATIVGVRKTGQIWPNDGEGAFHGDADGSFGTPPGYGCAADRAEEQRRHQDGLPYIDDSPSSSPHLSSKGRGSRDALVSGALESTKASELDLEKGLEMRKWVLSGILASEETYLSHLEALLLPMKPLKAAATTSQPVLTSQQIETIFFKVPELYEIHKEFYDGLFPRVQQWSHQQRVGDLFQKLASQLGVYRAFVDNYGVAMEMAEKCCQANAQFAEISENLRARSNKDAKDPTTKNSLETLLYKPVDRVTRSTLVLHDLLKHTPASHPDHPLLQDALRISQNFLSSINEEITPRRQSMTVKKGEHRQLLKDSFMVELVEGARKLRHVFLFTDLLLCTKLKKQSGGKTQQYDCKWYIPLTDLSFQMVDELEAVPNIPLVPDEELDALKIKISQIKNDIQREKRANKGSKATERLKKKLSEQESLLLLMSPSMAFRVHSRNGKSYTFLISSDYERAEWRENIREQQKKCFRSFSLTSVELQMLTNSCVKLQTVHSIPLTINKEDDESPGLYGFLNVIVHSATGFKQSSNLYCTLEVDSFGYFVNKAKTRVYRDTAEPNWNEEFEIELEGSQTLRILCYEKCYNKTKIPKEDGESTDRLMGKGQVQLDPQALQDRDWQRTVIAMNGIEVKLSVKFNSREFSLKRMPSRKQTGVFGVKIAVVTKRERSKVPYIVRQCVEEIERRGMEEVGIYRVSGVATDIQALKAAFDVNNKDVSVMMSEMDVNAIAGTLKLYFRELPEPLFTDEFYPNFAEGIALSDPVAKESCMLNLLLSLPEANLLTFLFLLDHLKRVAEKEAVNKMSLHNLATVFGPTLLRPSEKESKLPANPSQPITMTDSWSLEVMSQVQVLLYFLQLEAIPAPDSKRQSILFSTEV

[2] = Inhibition of C-Src (unknown origin) in presence of ATP; set-up: species or system Homo sapiens
HCT-116 [3] = assay: Cytotoxicity against human HCT-116 cells assessed as growth inhibition incubated for 72 hrs by MTT assay; format: functional, cell-based; details: HCT-116, 72 h
A549 [4] = assay: Cytotoxicity against human A549 cells assessed as growth inhibition incubated for 72 hrs by MTT assay; format: functional, cell-based; details: A549, 72 h
K562 [5] = assay: Cytotoxicity against human K562 cells assessed as growth inhibition incubated for 72 hrs by MTT assay; format: functional, cell-based; details: K562, 72 h
A549 [6] = assay: Cytotoxicity against human A549 cells assessed as growth inhibition at 10 uM incubated for 72 hrs by MTT assay relative to control; format: functional
K562 [7] = assay: Cytotoxicity against human K562 cells assessed as growth inhibition at 10 uM incubated for 72 hrs by MTT assay relative to control; format: functional
Bcr/Abl fusion protein = Bcr/Abl fusion protein (Homo sapiens, UniProt P00519); assay: Inhibition of wild-type Bcr-Abl (unknown origin) in presence of ATP; format: protein assay
Bcr/Abl fusion protein, sequence (P00519 whole entry, the tested form may be a part): as the sequence (P00519 whole entry, looked up, the tested form may be a part) above
Bcr/Abl fusion protein, sequence (P11274 whole entry, further chain, the tested form may be a part): as the sequence (P11274 whole entry, looked up, the tested form may be a part) above

MCF7 [8] = assay: Cytotoxicity against human MCF7 cells assessed as growth inhibition at 10 uM incubated for 72 hrs by MTT assay relative to control; format: functional
MCF7 [9] = assay: Cytotoxicity against human MCF7 cells assessed as growth inhibition incubated for 72 hrs by MTT assay; format: functional, cell-based; details: MCF7, 72 h
HCT-116 [10] = assay: Cytotoxicity against human HCT-116 cells assessed as growth inhibition at 10 uM incubated for 72 hrs by MTT assay relative to control; format: functional

Row | SMILES | IC50 [2] | IC50 (Bcr/Abl fusion protein) | EC50 (A549 [4]) | EC50 (K562 [5]) | also measured
1 | C=CC(=O)N(c1ccccc1)c1c(C#N)cnc2cc(OC)c(OC)cc12 | – | – | – | – | inhibition (Homo sapiens): 9.5%; inhibition [1]: 7.1%
2 | COc1cc2ncc(C#N)c(Nc3ccccc3)c2cc1OC | – | – | – | – | inhibition (Homo sapiens): 96.5%; inhibition [1]: 98.7%
3 | COc1cc2ncc(C#N)c(Nc3ccc(Br)cc3Br)c2cc1OC | 2440 nM | 5430 nM | – | – | –
4 | C=CC(=O)N(c1ccc(Cl)cc1Cl)c1c(C#N)cnc2cc(OC)c(OC)cc12 | 2080 nM | 1330 nM | – | – | –
5 | C=CC(=O)N(c1cc(OC)c(Cl)cc1Cl)c1c(C#N)cnc2cc(OC)c(OC)cc12 | 863 nM | 893 nM | – | – | –
6 | C=CC(=O)N(c1ccc(Br)cc1Br)c1c(C#N)cnc2cc(OC)c(OC)cc12 | 8520 nM | > 10000 nM | – | – | –
7 | COc1cc(N(C(C)=O)c2c(C#N)cnc3cc(OCCCN4CCCCC4)c(OC)cc23)c(Cl)cc1Cl | 770 nM | 1100 nM | – | – | inhibition at 10 µM (HCT-116 [10]): 34%; inhibition at 10 µM (A549 [6]): 28%; inhibition at 10 µM (K562 [7]): 31%; inhibition at 10 µM (MCF7 [8]): 34%
8 | C=CC(=O)N(c1cc(OC)ccc1Cl)c1c(C#N)cnc2cc(OCCCN3CCN(C)CC3)c(OC)cc12 | 484 nM | 186 nM | – | 9830 nM | inhibition at 10 µM (A549 [6]): 32%; inhibition at 10 µM (MCF7 [8]): 40%
9 | C=CC(=O)N(c1cc(OC)ccc1Cl)c1c(C#N)cnc2cc(OC)c(OC)cc12 | 1840 nM | 569 nM | – | – | –

Continued by falling IC50 [2], values first:

Row | IC50 [2] | IC50 (Bcr/Abl fusion protein) | SMILES | EC50 (A549 [4]) | EC50 (K562 [5]) | also measured
10 | 207 nM | 193 nM | C=CC(=O)N(c1cc(OC)ccc1Cl)c1c(C#N)cnc2cc(OCCCN3CCOCC3)c(OC)cc12 | – | – | inhibition at 10 µM (A549 [6]): 31%; inhibition at 10 µM (K562 [7]): 40%; inhibition at 10 µM (MCF7 [8]): 25%
11 | 169 nM | 214 nM | C=CC(=O)N(c1cc(OC)c(Cl)cc1Cl)c1c(C#N)cnc2cc(OCCCN3CCCCC3)c(OC)cc12 | 5500 nM | 3190 nM | EC50 (HCT-116 [3]): 6380 nM
12 | 132 nM | 112 nM | C=CC(=O)N(c1cc(OC)ccc1Cl)c1c(C#N)cnc2cc(OCCCN3CCCCC3)c(OC)cc12 | 8900 nM | 9760 nM | EC50 (MCF7 [9]): 9450 nM
13 | 110 nM | 169 nM | C=CC(=O)N(c1cc(OC)c(Cl)cc1Cl)c1c(C#N)cnc2cc(OCCCN3CCOCC3)c(OC)cc12 | 4170 nM | 6390 nM | EC50 (MCF7 [9]): 7850 nM
14 | 101 nM | 56.2 nM | C=CC(=O)N(c1cc(OC)c(Cl)cc1Cl)c1c(C#N)cnc2cc(OCCCN3CCN(C)CC3)c(OC)cc12 | 1440 nM | 1060 nM | EC50 (HCT-116 [3]): 4860 nM
15 | 4.67 nM | 4.38 nM | COc1cc2ncc(C#N)c(Nc3ccc(Cl)cc3Cl)c2cc1OC | – | – | –
16 | 0.89 nM | 0.64 nM | COc1ccc(Cl)c(Nc2c(C#N)cnc3cc(OC)c(OC)cc23)c1 | – | – | –
17 | 0.77 nM | 0.76 nM | COc1cc(Nc2c(C#N)cnc3cc(OC)c(OC)cc23)c(Cl)cc1Cl | – | – | –
18 | 0.35 nM | 0.3 nM | COc1ccc(Cl)c(Nc2c(C#N)cnc3cc(OCCCN4CCCCC4)c(OC)cc23)c1 | 7870 nM | 8070 nM | inhibition at 10 µM (MCF7 [8]): 29%
19 | 0.33 nM | 0.23 nM | COc1ccc(Cl)c(Nc2c(C#N)cnc3cc(OCCCN4CCOCC4)c(OC)cc23)c1 | 7150 nM | 1190 nM | EC50 (MCF7 [9]): 9340 nM
20 | 0.27 nM | 0.42 nM | COc1cc(Nc2c(C#N)cnc3cc(OCCCN4CCOCC4)c(OC)cc23)c(Cl)cc1Cl | 7400 nM | 6430 nM | EC50 (MCF7 [9]): 8670 nM
21 | 0.23 nM | 0.06 nM | COc1ccc(Cl)c(Nc2c(C#N)cnc3cc(OCCCN4CCN(C)CC4)c(OC)cc23)c1 | 4510 nM | – | EC50 (MCF7 [9]): 4490 nM; inhibition at 10 µM (K562 [7]): 46%
22 | 0.14 nM | – | COc1cc(Nc2c(C#N)cnc3cc(OCCCN4CCN(C)CC4)c(OC)cc23)c(Cl)cc1Cl [BOSUTINIB] | 970 nM | 690 nM | EC50 (HCT-116 [3]): 3420 nM
23 | 0.11 nM | 0.14 nM | COc1cc(Nc2c(C#N)cnc3cc(OCCCN4CCCCC4)c(OC)cc23)c(Cl)cc1Cl | 8560 nM | 7330 nM | EC50 (HCT-116 [3]): 7990 nM
